These results are taken from patent US10941136B2, “Quinazoline derivative or its salt and pharmaceutical composition comprising the same” (YUHAN CORPORATION, priority 2016, dated 2021).

Molecules are shown by their SMILES.

The term IC50 denotes the midpoint of a concentration-inhibition curve. A higher IC50 goes with weaker potency in that assay.

Common to all, as to assay type: biochemical
For test [1], the target named is T1, PI3Kγ (p120γ)(h) (Homo sapiens, UniProt P48736).
T1 construct: purchased Upstate (Millipore Co) #14-558
T1 sequence (P48736 whole entry): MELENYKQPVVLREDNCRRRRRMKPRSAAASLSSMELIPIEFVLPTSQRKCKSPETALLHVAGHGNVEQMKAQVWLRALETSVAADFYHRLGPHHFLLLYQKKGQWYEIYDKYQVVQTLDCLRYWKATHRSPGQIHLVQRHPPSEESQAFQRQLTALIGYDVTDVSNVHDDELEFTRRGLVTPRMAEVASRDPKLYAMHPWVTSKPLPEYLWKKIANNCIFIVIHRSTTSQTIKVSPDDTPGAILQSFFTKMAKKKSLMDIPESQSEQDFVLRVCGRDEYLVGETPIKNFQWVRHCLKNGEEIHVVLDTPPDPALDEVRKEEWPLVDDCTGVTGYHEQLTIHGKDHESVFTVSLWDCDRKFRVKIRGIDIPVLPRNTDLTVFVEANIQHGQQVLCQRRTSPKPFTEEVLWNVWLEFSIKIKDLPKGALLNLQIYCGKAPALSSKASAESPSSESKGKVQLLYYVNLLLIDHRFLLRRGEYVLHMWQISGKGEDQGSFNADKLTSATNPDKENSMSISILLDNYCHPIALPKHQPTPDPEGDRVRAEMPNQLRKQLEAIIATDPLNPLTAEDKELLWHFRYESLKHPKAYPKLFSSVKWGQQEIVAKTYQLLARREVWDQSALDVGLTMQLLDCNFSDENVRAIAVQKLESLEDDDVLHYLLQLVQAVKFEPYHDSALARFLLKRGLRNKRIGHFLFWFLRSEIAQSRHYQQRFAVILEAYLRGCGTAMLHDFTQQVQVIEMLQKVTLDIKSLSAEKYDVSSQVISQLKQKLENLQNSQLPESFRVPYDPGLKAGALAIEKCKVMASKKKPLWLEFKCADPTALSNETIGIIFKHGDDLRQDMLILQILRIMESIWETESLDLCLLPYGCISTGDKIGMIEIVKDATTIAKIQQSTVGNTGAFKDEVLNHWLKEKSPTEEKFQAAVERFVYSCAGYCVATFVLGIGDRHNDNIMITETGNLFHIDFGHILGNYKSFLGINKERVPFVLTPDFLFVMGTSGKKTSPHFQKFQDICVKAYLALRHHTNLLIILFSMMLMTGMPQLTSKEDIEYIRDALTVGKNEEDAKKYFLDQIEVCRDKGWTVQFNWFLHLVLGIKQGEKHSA
Kind of test: PI3K-HTRF in vitro enzyme assay, PI3Kγ. The note with it: enzyme 0.4 μg/ml. On the procedure: (§1) The compounds of the present invention were tested for the activity of phosphatidylinositol 3-kinase delta (PI3K) by using a PI3K enzyme-homogeneous time resolved fluorescence (PI3K-HTRF) kit, which is available under Upstate™ kit (Millipore Co, Billerica, Mass., USA). This kit system measures indirectly the amount of PIP3 produced via PI3K by detecting competitive inhibition of fluorescence complex formation.
(§2) There were used three kinds of buffer solutions, i.e., reaction buffer, stop solution, and detection solution. The reaction buffer was prepared by diluting Reaction Buffer (provided in Update™ kit) with distilled water 4 times and adding DTT to a concentration of 5 mM. The stop solution was prepared by combining STOP A and B Solutions (provided in Update™ kit) in a ratio of 3:1. The detection solution was prepared by combining Detection Solution A, B and C (provided in Update™ kit) in a ratio of 1:1:18. A substrate solution and an ATP solution were prepared by diluting the 1 mM PIP2 (phosphatidyl inositol 4,5 bi-phosphate) stock solution (provided in Update™ kit) and 10 mM ATP (Sigma-aldrich Co., St. Louis, Mo., USA) stock solution with the reaction buffer to concentrations of 20 μM and 40 μM, respectively. An enzyme solution was prepared by diluting PI3Kδ (#14˜604; Upstate™ kit) with the substrate solution to the concentration of 0.2 μg/ml (final reaction concentration: 0.1 μg/ml).
(§3) The test groups were prepared by dissolving each compound in 100% DMSO at 40× the final concentration and then diluting 10-fold with the reaction buffer. 5 μl of each diluted test group solution was transferred to a 384 well low flange white flat bottom microplate (#3572, Corning Life Sciences, Lowell, Mass., USA). We performed centrifuge (1 minute, 1000 rpm) and shaking for 2 minutes after every solution-adding step in this experiment. Next, 10 μl of the enzyme solution was added to each well. A mixed solution of the substrate solution (10 μl) plus 5 μl of the 100% DMSO diluted solution without test compound (i.e., 10% DMSO solution) was used as a negative control. And also, a mixed solution of enzyme solution (10 μl) plus 5 μl of the 100% DMSO diluted solution without test compound (i.e., 10% DMSO solution) was used as a positive control. This plate was pre-incubated for 10 minutes in a 25° C. incubator. After the pre-incubation, the phosphorylation reaction was induced by adding 5 μl of the ATP solution and the plate was incubated for 30 minutes in a 25° C. incubator. This enzyme reaction was stopped by 5 μl of the stop solution and then 5 μl of the detection solution was added thereto. To obtain enough fluorescence responses, the plate was incubated for 2 hours in a 25° C. incubator protected from light.
(§4) The time-resolved fluorescence resonance energy transfer (TR-FRET) rate was measured (emission wavelength: 665 nm, 620 nm, excitation wavelength: 313 nm) by using a Flexstation3 Micro plate reader (Molecular Devices, USA). TR-FRET Rate was calculated based on the Equation 1 and using these TR-FRET Rates, % inhibition rate of each compound was calculated based on the Equation 2. The IC50 values, i.e., the concentration of a test compound that inhibits 50% of PI3Kδ activity in vitro, are generated by Softmax program (Molecular Devices, USA). TR-FRET Rate=(Signal at 665 nm emission wavelength/Signal at 620 nm emission wavelength)×10000 <Equation 1> % Inhibition Rate=[(TR-FRET Rate of the test group−TR-FRET Rate of the positive control group)/(TR-FRET Rate of the negative control group−TR-FRET Rate of the positive control group)]×100 <Equation 2>
(§5) The compounds of the present invention were assayed for the activities of PI3K subtypes, i.e., PI3Kα, PI3Kβ and PI3Kγ, using the same procedures as in Experimental Example 1. […]

For test [2], the target named is T2, PI3Kα (p110α/p85α)(h) (Homo sapiens, UniProt P42336).
T2 construct: purchased Upstate (Millipore Co) #14-602
T2 sequence (P42336 whole entry): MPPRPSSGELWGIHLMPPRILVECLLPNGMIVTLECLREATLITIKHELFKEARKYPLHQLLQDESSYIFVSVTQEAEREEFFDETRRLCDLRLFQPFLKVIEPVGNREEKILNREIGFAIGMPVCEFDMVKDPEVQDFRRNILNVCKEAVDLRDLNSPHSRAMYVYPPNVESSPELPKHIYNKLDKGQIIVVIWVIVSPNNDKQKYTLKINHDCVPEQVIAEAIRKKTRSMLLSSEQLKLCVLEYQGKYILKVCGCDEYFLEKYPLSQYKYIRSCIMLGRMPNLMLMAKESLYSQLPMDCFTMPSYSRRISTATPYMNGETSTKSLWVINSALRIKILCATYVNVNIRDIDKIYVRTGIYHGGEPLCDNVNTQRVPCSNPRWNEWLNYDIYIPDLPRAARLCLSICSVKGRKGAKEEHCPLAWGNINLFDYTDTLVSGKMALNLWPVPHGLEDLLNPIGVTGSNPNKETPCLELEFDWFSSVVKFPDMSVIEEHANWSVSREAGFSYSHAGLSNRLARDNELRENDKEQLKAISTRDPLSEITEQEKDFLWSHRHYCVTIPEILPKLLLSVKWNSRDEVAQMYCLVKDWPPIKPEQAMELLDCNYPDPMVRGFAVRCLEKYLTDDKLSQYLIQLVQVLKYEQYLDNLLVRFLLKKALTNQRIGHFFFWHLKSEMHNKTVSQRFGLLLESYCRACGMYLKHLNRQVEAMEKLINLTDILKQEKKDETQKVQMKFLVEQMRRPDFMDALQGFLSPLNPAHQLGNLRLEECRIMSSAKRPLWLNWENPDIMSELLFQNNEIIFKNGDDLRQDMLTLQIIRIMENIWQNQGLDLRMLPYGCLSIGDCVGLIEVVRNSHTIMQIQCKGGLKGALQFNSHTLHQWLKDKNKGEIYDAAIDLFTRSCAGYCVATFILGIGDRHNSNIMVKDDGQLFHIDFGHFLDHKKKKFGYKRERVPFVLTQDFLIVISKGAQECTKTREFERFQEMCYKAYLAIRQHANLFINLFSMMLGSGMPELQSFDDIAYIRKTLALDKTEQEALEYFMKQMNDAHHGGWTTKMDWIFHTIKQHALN
T2 sequence (P27986 whole entry partner): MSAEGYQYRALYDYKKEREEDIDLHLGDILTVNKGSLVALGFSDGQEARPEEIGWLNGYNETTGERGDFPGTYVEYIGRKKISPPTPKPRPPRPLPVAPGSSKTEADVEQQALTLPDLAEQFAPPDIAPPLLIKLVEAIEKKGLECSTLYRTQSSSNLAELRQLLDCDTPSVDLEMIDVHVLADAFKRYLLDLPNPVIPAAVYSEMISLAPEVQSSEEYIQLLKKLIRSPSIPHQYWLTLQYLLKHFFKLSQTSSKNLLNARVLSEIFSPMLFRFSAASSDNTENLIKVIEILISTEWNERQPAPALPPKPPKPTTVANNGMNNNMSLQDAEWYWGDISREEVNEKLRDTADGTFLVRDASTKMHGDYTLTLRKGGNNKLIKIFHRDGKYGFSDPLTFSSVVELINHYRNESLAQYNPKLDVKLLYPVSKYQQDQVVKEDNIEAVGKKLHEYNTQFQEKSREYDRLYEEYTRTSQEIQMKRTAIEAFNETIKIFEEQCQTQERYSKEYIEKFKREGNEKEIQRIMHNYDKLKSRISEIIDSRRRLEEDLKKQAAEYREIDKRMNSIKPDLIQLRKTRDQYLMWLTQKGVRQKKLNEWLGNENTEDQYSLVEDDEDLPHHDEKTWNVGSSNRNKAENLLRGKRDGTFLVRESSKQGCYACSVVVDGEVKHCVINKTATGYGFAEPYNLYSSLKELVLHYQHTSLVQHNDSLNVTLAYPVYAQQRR
Kind of test: PI3K-HTRF in vitro enzyme assay, PI3Kα. The settings on record: enzyme 0.1 μg/ml. On the procedure: as §1, §2, §3, §4, §5

The target in test [3] is T3, PI3Kβ (p110β/p85α)(h) (Homo sapiens, UniProt P42338).
T3 construct: purchased Upstate (Millipore Co) #14-603
T3 sequence (P42338 whole entry): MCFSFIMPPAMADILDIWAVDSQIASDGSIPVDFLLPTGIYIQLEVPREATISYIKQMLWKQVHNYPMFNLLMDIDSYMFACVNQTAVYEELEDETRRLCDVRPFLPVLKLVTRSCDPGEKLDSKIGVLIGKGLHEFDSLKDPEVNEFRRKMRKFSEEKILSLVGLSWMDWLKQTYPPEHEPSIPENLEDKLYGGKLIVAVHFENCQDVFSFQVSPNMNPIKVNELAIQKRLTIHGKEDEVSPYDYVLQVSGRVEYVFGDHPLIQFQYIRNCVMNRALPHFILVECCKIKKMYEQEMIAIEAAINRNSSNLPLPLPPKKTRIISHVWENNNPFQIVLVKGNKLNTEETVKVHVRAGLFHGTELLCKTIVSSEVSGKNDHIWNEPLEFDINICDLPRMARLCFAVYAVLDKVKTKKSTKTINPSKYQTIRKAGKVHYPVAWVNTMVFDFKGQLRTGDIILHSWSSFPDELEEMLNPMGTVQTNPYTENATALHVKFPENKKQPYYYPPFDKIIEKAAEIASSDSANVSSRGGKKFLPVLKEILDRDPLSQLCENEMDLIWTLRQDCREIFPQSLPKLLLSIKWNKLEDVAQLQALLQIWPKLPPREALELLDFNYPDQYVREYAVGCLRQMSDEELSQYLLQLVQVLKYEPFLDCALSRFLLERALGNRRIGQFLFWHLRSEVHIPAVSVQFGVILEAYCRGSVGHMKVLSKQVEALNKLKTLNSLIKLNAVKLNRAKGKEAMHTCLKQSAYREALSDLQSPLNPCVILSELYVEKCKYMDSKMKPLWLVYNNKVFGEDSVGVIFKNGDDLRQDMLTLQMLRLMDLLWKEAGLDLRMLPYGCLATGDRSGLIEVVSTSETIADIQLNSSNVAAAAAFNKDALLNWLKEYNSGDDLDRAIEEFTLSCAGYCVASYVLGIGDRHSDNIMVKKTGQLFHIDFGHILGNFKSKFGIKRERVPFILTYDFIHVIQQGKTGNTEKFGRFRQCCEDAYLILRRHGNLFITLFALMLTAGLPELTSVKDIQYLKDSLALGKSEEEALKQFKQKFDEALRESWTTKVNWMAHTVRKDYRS
T3 sequence (P27986 whole entry partner): as the sequence (P27986 whole entry partner) above
Nature of the test: PI3K-HTRF in vitro enzyme assay, PI3Kβ. The settings on record: enzyme 0.4 μg/ml. On the procedure: as §1, §2, §3, §4, §5
(In TR-FRET formats the signal depends on donor and acceptor labels being close together.)

The target of test [4] is T4, PI3Kδ (p110δ/p85α)(h) (Homo sapiens, UniProt O00329).
T4 construct: purchased Upstate (Millipore Co, Billerica, Mass., USA) #14˜604
T4 sequence (O00329 whole entry): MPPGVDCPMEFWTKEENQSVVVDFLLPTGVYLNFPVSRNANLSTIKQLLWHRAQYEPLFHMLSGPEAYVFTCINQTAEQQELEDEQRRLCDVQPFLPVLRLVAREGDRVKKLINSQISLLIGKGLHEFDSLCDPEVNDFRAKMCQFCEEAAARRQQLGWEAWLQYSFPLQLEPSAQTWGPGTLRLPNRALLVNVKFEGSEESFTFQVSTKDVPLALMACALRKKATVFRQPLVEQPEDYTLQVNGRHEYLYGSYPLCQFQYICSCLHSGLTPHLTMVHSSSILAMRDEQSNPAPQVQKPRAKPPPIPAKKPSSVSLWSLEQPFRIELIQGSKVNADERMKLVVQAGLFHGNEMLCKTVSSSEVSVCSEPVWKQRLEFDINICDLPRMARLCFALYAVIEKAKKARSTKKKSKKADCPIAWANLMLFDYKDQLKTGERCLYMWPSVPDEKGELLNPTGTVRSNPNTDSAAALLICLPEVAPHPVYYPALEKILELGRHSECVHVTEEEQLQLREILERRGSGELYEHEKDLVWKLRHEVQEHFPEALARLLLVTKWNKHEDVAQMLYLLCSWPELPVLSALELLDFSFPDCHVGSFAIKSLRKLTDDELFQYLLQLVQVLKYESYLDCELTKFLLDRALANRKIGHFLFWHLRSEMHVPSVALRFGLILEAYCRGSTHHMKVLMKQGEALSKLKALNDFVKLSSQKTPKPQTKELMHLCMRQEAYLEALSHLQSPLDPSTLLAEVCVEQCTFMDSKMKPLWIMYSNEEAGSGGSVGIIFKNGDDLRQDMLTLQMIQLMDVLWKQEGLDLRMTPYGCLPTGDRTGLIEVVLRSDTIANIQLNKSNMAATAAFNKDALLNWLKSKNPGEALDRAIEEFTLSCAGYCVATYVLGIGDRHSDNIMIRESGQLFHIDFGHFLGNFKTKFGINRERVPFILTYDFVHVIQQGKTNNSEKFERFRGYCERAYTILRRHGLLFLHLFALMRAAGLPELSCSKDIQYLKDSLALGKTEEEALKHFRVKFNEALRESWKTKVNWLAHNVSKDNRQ
T4 sequence (P27986 whole entry partner): as the sequence (P27986 whole entry partner) above
Kind of test: PI3K-HTRF in vitro enzyme assay, PI3Kδ. The settings on record: enzyme 0.1 μg/ml. On the procedure: as §1, §2, §3, §4

On to `C[C@H](Nc1ncnc2ccc(C#N)cc12)c1nc2cccc(-c3cnc(N)nc3)c2c(=O)n1-c1ccccc1` [Example 2, (S)-4-((1-(5-(2-aminopyrimidin-5-yl)-4-oxo-3-phenyl-3,4-dihydroquinazolin-2-yl)ethyl)amino)quinazoline-6-carbonitrile], for which the IC50 was determined as 117 nM in test [1], 598 nM in test [2], 6710 nM in test [3] and 4 nM in test [4].

For `CCC[C@H](Nc1ncnc2ccc(C#N)cc12)c1nc2cccc(-c3cnc(OC)nc3)c2c(=O)n1-c1ccccc1` [Example 10, (S)-4-((1-(5-(2-methoxypyrimidin-5-yl)-4-oxo-3-phenyl-3,4-dihydroquinazolin-2-yl)butyl)amino)quinazoline-6-carbonitrile], the IC50 in test [1] came out at 465 nM; in test [2], 3420 nM; in test [3] it was 7500 nM; in test [4], 17 nM.

Take `CCC[C@H](Nc1ncnc2ccc(C#N)cc12)c1nc2cccc(-c3cnc(OCC)nc3)c2c(=O)n1-c1ccccc1` [Example 11, (S)-4-((1-(5-(2-ethoxypyrimidin-5-yl)-4-oxo-3-phenyl-3,4-dihydroquinazolin-2-yl)butyl)amino)quinazoline-6-carbonitrile]: the IC50 in test [1] was found to be 432 nM; in test [2], 4740 nM; in test [3] it was 8950 nM; in test [4], 16 nM.

For the compound `CCC[C@H](Nc1ncnc2ccc(C#N)cc12)c1nc2cccc(-c3cnc(N)nc3)c2c(=O)n1-c1ccccc1` [Example 12, (S)-4-((1-(5-(2-aminopyrimidin-5-yl)-4-oxo-3-phenyl-3,4-dihydroquinazolin-2-yl)butyl)amino)quinazoline-6-carbonitrile], the IC50 in test [1] is 108 nM; in test [2], 621 nM; in test [3] it was 3060 nM; in test [4], 6 nM.

For `C[C@H](Nc1ncnc2ccc(C#N)cc12)c1nc2cccc(-c3cncnc3)c2c(=O)n1C1CC1` [Example 17, (S)-4-((1-(3-cyclopropyl-4-oxo-5-(pyrimidin-5-yl)-3,4-dihydroquinazolin-2-yl)ethyl)amino)quinazoline-6-carbonitrile], the IC50 in test [1] worked out at 947 nM; in test [2], 2640 nM; in test [3], 3820 nM; in test [4] it was 10 nM.

On to `COc1ncc(-c2cccc3nc([C@H](C)Nc4ncnc5ccc(C#N)cc45)n(C4CC4)c(=O)c23)cn1` [Example 18, (S)-4-((1-(3-cyclopropyl-5-(2-methoxypyrimidin-5-yl)-4-oxo-3,4-dihydroquinazolin-2-yl)ethyl)amino)quinazoline-6-carbonitrile], for which the IC50 in test [1] stood at 771 nM; in test [2], 2710 nM; in test [3], 5790 nM; in test [4], 19 nM.

On to `CCOc1ncc(-c2cccc3nc([C@H](C)Nc4ncnc5ccc(C#N)cc45)n(C4CC4)c(=O)c23)cn1` [Example 19, (S)-4-((1-(3-cyclopropyl-5-(2-ethoxypyrimidin-5-yl)-4-oxo-3,4-dihydroquinazolin-2-yl)ethyl)amino)quinazoline-6-carbonitrile], for which the IC50 came out at 593 nM in test [1], 2020 nM in test [2], 6730 nM in test [3] and 21 nM in test [4].

Consider `CC[C@H](Nc1ncnc2cccc(F)c12)c1nc2cccc(-c3cnc(F)nc3)c2c(=O)n1-c1ccccc1` [Example 26, (S)-5-(2-fluoropyrimidin-5-yl)-2-(1-((5-fluoroquinazolin-4-yl)amino)propyl)-3-phenylquinazolin-4(3H)-one], for which the results for the IC50 in test [1], in test [2] and in test [4] were 3420 nM, 4470 nM and 17 nM, respectively.

As for `CC[C@H](Nc1ncnc2cccc(F)c12)c1nc2cccc(-c3cnc(C)nc3)c2c(=O)n1-c1ccccc1` [Example 27, (S)-2-(1-((5-fluoroquinazolin-4-yl)amino)propyl)-5-(2-methylpyrimidin-5-yl)-3-phenylquinazolin-4(3H)-one], the IC50 in test [1] turned out to be 4980 nM; in test [2] it was 7260 nM; in test [4], 27 nM.

Take `CC(C)[C@H](Nc1ncnc2cccc(F)c12)c1nc2cccc(-c3cnc(N)nc3)c2c(=O)n1-c1ccccc1` [Example 29, (S)-5-(2-aminopyrimidin-5-yl)-2-(1-((5-fluoroquinazolin-4-yl)amino)-2-methylpropyl)-3-phenylquinazolin-4(3H)-one]: the figures for the IC50 in test [1], in test [2] and in test [4] were 7610 nM, 2010 nM and 13 nM, respectively.

For `O=c1c2c(-c3cncnc3)cccc2nc([C@@H](Nc2ncnc3cccc(F)c23)C2CC2)n1-c1ccccc1` [Example 30, (S)-2-(cyclopropyl((5-fluoroquinazolin-4-yl)amino)methyl)-3-phenyl-5-(pyrimidin-5-yl)quinazolin-4(3H)-one], the IC50 was found to be 2640 nM in test [1], 5300 nM in test [2] and 19 nM in test [4].

Consider `Cc1ncc(-c2cccc3cc([C@H](C)Nc4ncnc5ccc(C#N)cc45)n(-c4ccccc4)c(=O)c23)cn1` [Example 36, (S)-4-((1-(8-(2-methylpyrimidin-5-yl)-1-oxo-2-phenyl-1,2-dihydroisoquinolin-3-yl)ethyl)amino)quinazoline-6-carbonitrile], for which the IC50 in test [1] was 86 nM; in test [2] it was 730 nM; in test [4], 5 nM.

As for `CC[C@H](Nc1ncnc2ccc(C#N)cc12)c1cc2cccc(-c3cncnc3)c2c(=O)n1-c1ccccc1` [Example 39, (S)-4-((1-(1-oxo-2-phenyl-8-(pyrimidin-5-yl)-1,2-dihydroisoquinolin-3-yl)propyl)amino)quinazoline-6-carbonitrile], the values for the IC50 in test [1], in test [2] and in test [4] were 195 nM, 712 nM and 1 nM, respectively.

For the compound `CC[C@H](Nc1ncnc2ccc(C#N)cc12)c1cc2cccc(-c3cnc(OC)nc3)c2c(=O)n1-c1ccccc1` [Example 40, (S)-4-((1-(8-(2-methoxypyrimidin-5-yl)-1-oxo-2-phenyl-1,2-dihydroisoquinolin-3-yl)propyl)amino)quinazoline-6-carbonitrile], the IC50 came out at 237 nM in test [1], 908 nM in test [2] and 2 nM in test [4].

As for `CC[C@H](Nc1ncnc2ccc(C#N)cc12)c1cc2cccc(-c3cnc(C)nc3)c2c(=O)n1-c1ccccc1` [Example 42, (S)-4-((1-(8-(2-methylpyrimidin-5-yl)-1-oxo-2-phenyl-1,2-dihydroisoquinolin-3-yl)propyl)amino)quinazoline-6-carbonitrile], the IC50 came out at 654 nM in test [1], 1630 nM in test [2] and 1 nM in test [4].

In the case of `C[C@H](Nc1ncnc2cccc(F)c12)c1cc2cccc(-c3cnc(F)nc3)c2c(=O)n1-c1ccccc1` [Example 44, (S)-8-(2-fluoropyrimidin-5-yl)-3-(1-((5-fluoroquinazolin-4-yl)amino)ethyl)-2-phenylisoquinolin-1(2H)-one], the figures for the IC50 in test [1], in test [2] and in test [4] were 2010 nM, 5630 nM and 18 nM, respectively.
